According to US6552006B2, “Immunomodulatory polynucleotides in treatment of an infection by an intracellular pathogen” (The Regents of the University of California, priority 2000, dated 2003):

Assays:
M. avium [1] = assay: Intracellular growth of M. avium in mouse bone marrow-derived macrophages (mBMDM) in vitro, CFU assay; assay type: cell-based, Mycobacterium avium; conditions: for % of CFU: 10 μg/ml 72 h prior to infection, day 7, medium alone = 100%; for M. avium growth in mBMDM: L-try (final 66 μg/ml) or M-try (125 μM) alone; for reductions in the anti-mycobacterial ability of ISS treatment: M. avium-infected mBMDM cultured with L-try (66 μg/ml) or M-try (125 μM) supplemented media plus ISS
Experimental: A previously studied M. avium strain 13 (Hayashi, et al. (1999) Infect. Immun. 67:3558-3565; Meylan, et al. (1990) Infect. Immun. 58:2564-2568), isolated from an AIDS patient at UCSD, San Diego, Calif., was used in all experiments. The organism was cultured on Middlebrook 7H11 agar (Difco Laboratories, Detroit, Mich.) with OADC enrichment at 37° C. in the presence of 5% CO2 for two weeks. Transparent colonies were selectively picked and further cultured on Middlebrook 7H11 plates for two more weeks. The resulting colonies, which were predominantly transparent (>90%), were then collected and washed two times with phosphate-buffered saline (PBS). The bacteria were finally resuspended in Middlebrook 7H9 broth (Difco Laboratories) and the OD600 of the suspension was adjusted to 0.15-0.2. The suspension was aliquoted and stored at −70° C. until use. The number of organisms/ml of this suspension was determined by the colony forming unit (CFU) assay.
The number of CFU in a given sample was determined by colony counting as described previously (Ogata, et al. (1992) Infect. Immun. 60:4720-4725). Serial 10-fold dilutions of total cell lysates or tissue homogenates were performed in PBS. 10 μl of each dilution were plated on Middlebrook 7H11 plates supplemented with OADC enrichment. The plates were incubated up to 14 days at 37° C. The number of colonies was counted every alternate day from day 10 onwards until no new colonies appeared. This yielded the number of CFU/10 μl. The number of CFU in each well was then calculated.
Preparation of Murine Macrophages. Mouse bone marrow-derived macrophages (mBMDM) were prepared from mouse bone marrow using L-cell conditioned media, as described in Martin-Orozco, et al. (1999) […] 11:1111-1118.
Alternatively, 5×10^4 mBMDM or hMDM was treated with ISS for 3 days before infection. Macrophages treated with M-ODN or with media alone served as controls. After 3 days, the cells were infected for 2 hrs with M. avium at a macrophage:bacteria ratio of 2:1 for mBMDM or of 1:10 for hMDM, and subsequently cultured in fresh media without antibiotics. To examine attachment and/or invasion of M. avium, the macrophages were lysed immediately after washing, and the number of bacteria were enumerated by the CFU assay. Intracellular growth of M. avium was determined on days 1, 3, and 7 after infection. To account for all the mycobacteria in each group, corresponding lysates were combined and then the number of CFU was determined. To examine the efficacy of anti-mycobacterial treatments, CFU recovered from cells treated with medium alone were considered as 100% growth.
To determine whether treatment with ISS after infection alters M. avium growth, adherent cells were first infected with M. avium for 2 hrs and then these cells were cultured with fresh media containing ISS. Infected cells treated with M-ODN or medium alone served as controls. At day 7, intracellular growth of M. avium was assessed by CFU assay.

M. avium [2] = assay: Growth of M. avium in vivo in C57B1/6 mice, CFU per organ; design: species or system Mycobacterium avium
[3] = test system: indoleamine 2,3-dioxygenase (IDO); assay: IDO gene induction in vivo in mice, semi-quantitative RT-PCR; conditions: injection of M-ODN in mice
mBMDM = assay: Viability of mBMDM (trypan-blue exclusion); assay type: cell-based, mouse
Experimental: To examine whether treatment with ISS can stimulate macrophages to inhibit the growth of M. avium, mBMDM (5×10^4 mBMDM/well) was first treated with ISS or M-ODN for 72 hrs and then infected with M. avium. Then, cellular CFU was counted on days 1, 3, and 7 post-infection (FIG. 9A). By day 7, treatment with ISS inhibited intracellular growth of M. avium in mBMDM by 80% (p<0.001). Since viability of macrophages can affect M. avium growth, the viability of macrophages was assessed by trypan-blue exclusion. […]

L. major = conditions: BALB/c mice; injection four hours after inoculation with live L. major promastigotes; cited from earlier work
[4] = C57B1/6 mice, 10^7 CFU i.v., treatment from one week after infection, CLA 200 mg/kg alone, 5 weeks after infection

With “5′-TGACTGTGAAGGTTAGAGATGA-3′ (SEQ ID NO:3) (chemistry not given here) [M-ODN, mutated control oligodeoxynucleotide with 2 base alteration of the CpG motif]” the “% of CFU” value (M. avium [1]; mBMDM from IFN-αR−/− 129S6/SvEv) was 106.9 ± 11.9%, the “% of CFU” value (M. avium [1]; mBMDM from IFN-γR−/− 129S6/SvEv) was 108.1 ± 10.8% and the “% of CFU” value (M. avium [1]; mBMDM from IL-12 p40−/− C57B1/6) was 117.6 ± 9.2%. The “% of CFU” value (M. avium [1]; mBMDM from INOS−/− C57B1/6) was 105.0 ± 13.9%, the “% of CFU” value (M. avium [1]; mBMDM from NADPH oxidase−/− (gp91 phox−/−) C57B1/6) was 107.0 ± 15.5% and the “% of CFU” value (M. avium [1]; mBMDM from TNF-α−/− C57B1/6) was 120.0 ± 20.0%. For the same compound, the “% of CFU” value (M. avium [1]; mBMDM from Wild type 129S6/SvEV) was 110.0 ± 15.9%, the “% of CFU” value (M. avium [1]; mBMDM from Wild type C57B1/6) was 117.2 ± 18.5% and the “CFU in the spleen and lungs compared with control (PBS) mice” value (M. avium [2]; 10^7 organisms/mouse, four weeks after infection) was “similar”. For the same compound, the “induction of IDO after injection” value [3] was “did not result in any detectable induction of IDO” and the “viable mBMDM” value (mBMDM) was > 90%.
With `Cn1cc(CC(N)C(=O)O)c2ccccc21` (racemic) [M-try, 1-methyl-DL-tryptophan] the “M. avium growth in mBMDM” value (M. avium [1]) was “did not alter”, the “reductions in the anti-mycobacterial ability of ISS treatment” value (M. avium [1]) was 4 fold and the “viability of mBMDM” value (mBMDM; L-try (final 66 μg/ml) or M-try (125 μM) alone) was “did not alter”.
For `CC[C@H]1OC(=O)[C@H](C)[C@@H](O[C@H]2C[C@@](C)(OC)[C@@H](O)[C@H](C)O2)[C@H](C)[C@@H](O[C@@H]2O[C@H](C)C[C@H](N(C)C)[C@H]2O)[C@](C)(OC)C[C@@H](C)C(=O)[C@H](C)[C@@H](O)[C@]1(C)O` [CLA, Clarithromycin, reference compound], the “reduction of bacterial growth in mBMDM” value (M. avium [1]; mBMDM infected first, then treated, ISS 10 μg/ml, CLA 0.1 μg/ml, 7 days after infection, compared to medium alone) was 84%, the “decrease of bacterial growth in the liver” value (M. avium [2]; [4]) was 4 log and the “decrease of bacterial growth in the lungs” value (M. avium [2]; [4]) was 1.5 log. The “decrease of bacterial growth in the spleen” value (M. avium [2]; [4]) was 4 log.
With `N[C@@H](Cc1c[nH]c2ccccc12)C(=O)O` [L-try, L-tryptophan] the “M. avium growth in mBMDM” value (M. avium [1]) was “did not alter” and the “reductions in the anti-mycobacterial ability of ISS treatment” value (M. avium [1]) was 4 fold.
In the case of CpG-ODN 1826, the “animals protected from progressive infection” value (L. major) is given as 65%.
